# Assay results taken from patent US20110143992A1, “Methods and Compositions Related to GHS-R Antagonists” (priority 2006, published 2011).
# [ ]: non-standard residue; d: D form.
# T1: CCR7 (Homo sapiens, UniProt P32248)
# T1 construct: MIP-3β induced calcium release (A) and sphingosine 1 phosphate (B) is not affected by DLG treatment in human T cells; endogenous in cells; host or cells: human T cells
# T1 sequence (P32248 25-378): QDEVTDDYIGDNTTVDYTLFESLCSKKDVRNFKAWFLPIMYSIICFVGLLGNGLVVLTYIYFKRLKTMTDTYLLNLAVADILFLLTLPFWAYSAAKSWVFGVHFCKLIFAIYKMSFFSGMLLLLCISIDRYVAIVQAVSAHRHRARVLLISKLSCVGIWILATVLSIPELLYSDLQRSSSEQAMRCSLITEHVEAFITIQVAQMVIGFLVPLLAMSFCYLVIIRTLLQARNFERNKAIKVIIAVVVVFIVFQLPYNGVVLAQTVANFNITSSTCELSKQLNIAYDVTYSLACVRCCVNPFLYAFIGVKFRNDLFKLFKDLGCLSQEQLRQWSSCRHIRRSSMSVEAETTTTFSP
# Tests used:
# primary brain tumors = settings: via ERK dependent pathways; cited from earlier work
# HIV = settings: cited from earlier work
# glioma cell = settings: cited from earlier work
# [1] = test system: breast and pancreatic carcinoma; settings: cited from earlier work
# [2] = in vivo; cited from earlier work
# CCR7 = target: T1, CCR7; test: MIP-3β induced calcium release in human T cells; type: cell-based
# EDG receptor = test: Sphingosine 1 phosphate induced calcium release in human T cells; type: cell-based
# Primary human T cells = test: Transwell chemotaxis assay, SDF-1 induced migration of primary human T cells; type: cell-based; settings: SDF-1 100 ng/ml, 2 h
# Procedure: (§1) Chemotaxis Assay. Fluorescence-based Transwell chemotaxis assays were performed to assess cell migration. Primary human T cells, CEMR5 and HH cells were labeled with 10 μg/ml Hoechst 33342 (Molecular Probes) in cRPMI for 30 min at 37° C. The cells were then resuspended in RPMI with 1% FBS to a concentration of 1×10^7/ml and 100 ul of Hoechst labeled cells (10^6 cells) were added into the top chamber of the transwells. Cells were treated with DLG in the upper chamber and RPMI (0.6 ml) containing 1% FBS was added to the bottom wells of the 24-well plate with 100 ng/ml of SDF-1α. Transwell chambers with 5 μm pore filters (Corning CoStar, Acton, Mass.) were then placed into the wells. Cells (1×10^6 in 100 μl) were then added to the chambers. After 2 h, the migrated cells in the bottom wells were transferred to triplicate wells of a 96-well plate in 150 μl volumes. Hoechst fluorescence was measured on a Fluoroskan Ascent FL fluorescence plate reader (Thermo Labsystems, Franklin, Mass.) at λex=355 nm, and λem=460 nm. Results are expressed as migration index calculated by subtracting the fluorescence intensity of media alone and comparing the values to the fluorescence intensity (relative number) of cells migrated into the bottom chamber in media alone, which is normalized to a value of 1. Fluorescence values were within the linear range of a standard dilution curve.
# [3] = test system: CEMR5 human T cell lymphoma cell; test: Transwell chemotaxis assay, SDF-1 induced migration of CEMR5 cells; type: cell-based; settings: SDF-1 100 ng/ml
# Procedure: as §1
# SW1008 astrocytoma cells = test: SDF-1 induced ERK phosphorylation, Western blot, SW1008 cells; type: cell-based, human; settings: DLG pretreatment 30 min
# Procedure: (§2) Western blot analysis. Control and treated cells were lysed in RIPA buffer supplemented with protease and phosphatase inhibitor cocktail (Sigma-Aldrich, St. Louis, Mo.) and protein concentrations of cell lysates were determined by Bradford assay. Protein lysates (30 μg) were diluted with sample buffer and separated on 4-20% Tris HCl SDS-polyacrylamide gels (Biorad, Hercules, Calif.) and electrophoretically transferred to nitrocellulose membranes (Schleicher & Schuell). The blots were then incubated with rabbit anti-phospho-P42 and pERK (Cell Signaling, Beverly, Mass.). Immune complexes were visualized by incubation with either an anti-rabbit or an anti-mouse HRP-conjugated secondary antibody (Amersham, Piscataway, N.J.). The immunoreactive band was visualized by enhanced chemiluminescence (Perkin-Elmer).
# U118 astrocytoma cells = test: SDF-1 induced ERK phosphorylation, Western blot, U118 cells; type: cell-based, human; settings: DLG pretreatment 30 min
# Procedure: as §2
# HIV1 (CXCR4, S1 strain) = test: HIV-1 infectivity of CEM-GFP indicator cells (GFP fluorescence); type: cell-based; settings: 1 ug/ml pretreatment 30 min, 90 min viral incubation
# Procedure: Neomycin-resistant indicator CEM-GFP cells were used to monitor the infections with HIV1 (CXCR4, S1 strain). Viral entry into CEM cells via CXCR4 results in generation of green fluorescent protein signal. CEM cells (1 million/ml) were pretreated with DLG (1 ug/ml) and SDF-1 (1 ug/ml) for 30 min followed by 90 min viral incubation.
# [4] = obese mice, cited from earlier work
# [5] = cited from earlier work
# CCR5 [6] = target: T2, CCR5 (Homo sapiens, UniProt P51681); test: MIP-1β induced calcium release in CEM-R5 cells (Fura-2AM); type: cell-based; parameters: ATCC; host or cells: CEM-R5 cells; settings: CEMR5 cells, MIP-1β 100 ng/ml
# T2 sequence (P51681 whole entry): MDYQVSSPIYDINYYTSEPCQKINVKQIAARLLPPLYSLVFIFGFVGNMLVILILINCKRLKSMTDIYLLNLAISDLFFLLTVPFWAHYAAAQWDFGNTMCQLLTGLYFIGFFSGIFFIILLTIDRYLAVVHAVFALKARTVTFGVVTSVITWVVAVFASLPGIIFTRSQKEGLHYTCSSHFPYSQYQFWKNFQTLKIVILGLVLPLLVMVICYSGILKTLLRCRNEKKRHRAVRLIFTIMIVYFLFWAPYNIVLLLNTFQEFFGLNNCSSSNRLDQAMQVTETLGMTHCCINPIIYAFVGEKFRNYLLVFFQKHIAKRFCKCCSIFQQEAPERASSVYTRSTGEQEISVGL
# CXCR4 [7] = target: T3, CXCR4 (Homo sapiens, UniProt P61073); test: SDF-1 induced intracellular calcium mobilization (Fura-2AM) in primary human T cells; type: cell-based; parameters: endogenous in cells; host or cells: primary human T cells purified from donor PBMCs
# T3 sequence (P61073 whole entry): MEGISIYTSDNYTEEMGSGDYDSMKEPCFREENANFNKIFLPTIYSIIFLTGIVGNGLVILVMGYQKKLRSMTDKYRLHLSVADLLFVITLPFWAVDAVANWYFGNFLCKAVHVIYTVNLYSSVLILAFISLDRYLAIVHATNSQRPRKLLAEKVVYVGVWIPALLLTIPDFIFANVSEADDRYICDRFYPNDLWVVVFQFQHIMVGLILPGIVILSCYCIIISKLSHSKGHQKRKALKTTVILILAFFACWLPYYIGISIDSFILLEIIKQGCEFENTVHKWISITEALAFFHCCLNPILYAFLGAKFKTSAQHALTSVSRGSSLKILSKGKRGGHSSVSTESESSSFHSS
# Procedure: Intracellular calcium mobilization. Measurement of intracellular calcium release in response to ghrelin and SDF-1 was performed as described previously (Dixit et al. J. Clin. Invest. 114, 57-66 (2004)). Cells were incubated in PBS containing […] Fura-2 acetoxymethyl ester (Molecular Probes) for 30 minutes at room temperature. The cells were subsequently washed and then resuspended at 1×10^6/ml in PBS. A total of 2 ml of the cell suspension was placed in a continuously stirring cuvette at room temperature in an LS50B spectrophotometer (Perkin-Elmer, Wellesley, Mass., USA). Labeled T cells were treated with SDF-1 (100 ng/ml) and along with DLG (Sigma-Aldrich) at various concentrations. Fluorescence was monitored at λex1=340 nm, λex2=380 nm, and λcm=510 nm. The data are presented as the relative ratio of fluorescence excited at 340 and 380 nm.
# CXCR4 [8] = target: T3, CXCR4; test: flow cytometry, whole cell ligand binding on T-SUP1 cells; competitor biotinylated SDF-1 + avidin-FITC; DLG 10^-2 M for 15 minutes by the legend of FIG. 5
# CCR5 [9] = target: T2, CCR5; test: flow cytometry, whole cell ligand binding on T-SUP1 cells; competitor biotinylated MIP-1β + avidin-FITC; DLG 10^-2 M for 15 minutes by the legend of FIG. 5
molecule,measurement,setting,value
c1cc(CN2CCCNCCNCCCNCC2)ccc1CN1CCCNCCNCCCNCC1 [AMD3100],intracranial growth of primary brain tumors,primary brain tumors,effectively inhibit intracranial growth of primary brain tumors
same,CXCR4 mediated HIV viral entry,HIV,successfully utilized to block CXCR4 mediated HIV viral entry
same,glioma cell invasion,glioma cell,blocks glioma cell invasion
same,metastasis of breast and pancreatic carcinoma,[1],blocks
same,allergy and collagen induced arthritis,[2],decreases allergy and collagen induced arthritis
"H-His-D-Trp-D-Lys-Trp-D-Phe-Lys-NH2 (H-H[dW][dK]W[dF]K-NH2; SMILES NCCCC[C@H](NC(=O)[C@@H](Cc1ccccc1)NC(=O)[C@H](Cc1c[nH]c2ccccc12)NC(=O)[C@@H](CCCCN)NC(=O)[C@@H](Cc1c[nH]c2ccccc12)NC(=O)[C@@H](N)Cc1c[nH]cn1)C(N)=O) [DLG, GHS-R antagonist peptide, obtained from Sigma-Aldrich]",effect on MIP-3β mediated calcium flux,CCR7,did not affect
same,effect on sphingosine 1 phosphate mediated calcium flux,EDG receptor,did not affect
same,inhibition of SDF-1 induced T cell migration,Primary human T cells,marked dose dependent inhibition
same,inhibition of SDF-1 induced migration,[3],inhibited the migration
same,effect on SDF-1 induced ERK/P42 phosphorylation,SW1008 astrocytoma cells,abrogated the SDF-1 induced signaling
same,effect on SDF-1 induced ERK/P42 phosphorylation,U118 astrocytoma cells,abrogated the SDF-1 induced signaling
same,HIV infectivity (GFP fluorescence intensity) compared to untreated cells,"HIV1 (CXCR4, S1 strain)",substantial reduction in HIV infectivity
same,body weight,[4]; repeated administration,reduce body weight in obese mice
same,glycaemic control and insulin resistance,[4]; repeated administration,improve their glycaemic control and insulin resistance
same,muscle mass,[4],without affecting the muscle mass
same,size of abdominal fat pads,[4],reduced the size of abdominal fat pads
same,food intake,[5]; fed state when circulating ghrelin levels are low,does not affect food intake in the fed state
same,adverse side effects,[5]; in vivo,without any adverse side effects
same,inhibition of calcium release post MIP-1β-CCR5 interaction,CCR5 [6],dose dependent inhibition of calcium release
same,inhibition of SDF-1-induced calcium flux,"CXCR4 [7]; primary human T cells, SDF-1 100 ng/ml, DLG at various concentrations",markedly inhibited in a dose dependent fashion
same,calcium flux by the substance alone,CXCR4 [7]; unstimulated primary human T cells,did not flux calcium by itself
H-H[dW][dK]W[dF]K-NH2 (SMILES NCCCC[C@H](NC(=O)[C@@H](Cc1ccccc1)NC(=O)[C@H](Cc1c[nH]c2ccccc12)NC(=O)[C@@H](CCCCN)NC(=O)[C@@H](Cc1c[nH]c2ccccc12)NC(=O)[C@@H](N)Cc1c[nH]cn1)C(N)=O) [D-[Lys3]GHRP-6 (H-His-D-Trp-D-Lys-Trp-D-Phe-Lys-NH2)],percent reduction of maximal binding,CXCR4 [8],50 to 60%
same,percent reduction of maximal binding,CCR5 [9],50 to 60%
